Data from patent US5032614A, “Serotonin antagonist” (Mitsubishi Kasei Corporation, priority 1989, dated 1991).

Assays:
[1] = molecular target: T1, serotonin-induced constriction of caudal artery (Rattus norvegicus, UniProt P14842); experiment: Inhibition test against serotonin-induced constriction of caudal artery in rats; assay type: cell-based; details: Wistar rat caudal artery spiral strip, from shift of serotonin ED50; read-out: Ki (inhibition constant against serotonin-induced constriction)
T1 construct: Caudal artery was removed and spiral strip was prepared; from tissue; host or cells: Wistar rat (male) caudal artery, spiral strip
Description: (2) Inhibition Test against Serotonin-induced Constriction of Caudal Artery in Rats Wistar strain male rats (300-500 g) were sacrificed by striking the animals at the occiput. Caudal artery was removed and spiral strip was prepared according to the procedure of J. M. van Nueten, The Journal of Pharmacology and Experimental Therapeutics 218(1): 217-230 (1981).
The spirit strip was ligated at both ends with cotton thread and placed in a magunus tube containing 10 ml of Krebs-Henselite solution (37° C., bubbled with a mixture of 95% O2 and 5% CO2). One end of the thread was connected to Isometric Transducer (Nihon Koden-kogyo Kikai). Isometric contraction was measured using Isometric Amplifier (Nihon Koden-kogyo Kikai) under a tension of 0.5 g.
The control contruction by cumulatively added serotonin(final concentration: 10^-9 --10^-5 M) was measured and then the control ED50 value of serotonin was determined. Subsequently, the strip was washed three times with Krebs-Henselite solution and a compound of the invention was added at a suitable concentration (final concentration: 10^-8, 10^-7, 10^-6, or 10^-5 M). Two minutes later, serotonin was cumulatively added at concentrations from 10^-9 to 10^-5 or 10^-3 M, and the ED50 value in the test group was determined.
ED50 values were calculated by "Probit Analysis". In Probit Analysis, an intercept, slope and spontaneous (threshold) reaction ratio of the curve obtained by biological analysis can be calculated according to the following "Probit equation" with highest reliability: [formula] .PHI.: the cumulative distributing relationships of standard normal distribution. […]
x: average dose (concentration of serotonin) y: probability of reaction (contractility rate of vascular smooth muscle) a, b, c: parameter; a, b>0, 1>c>0.
Inhibition constant (Ki) for each compound was determined according to the following equation: [formula]

[2] = molecular target: T2, serotonin receptor (3H-Ketanserin binding, cerebral cortex nucleus-microsome-containing fraction) (Rattus norvegicus, UniProt P14842); experiment: Receptor-binding test (3H-Ketanserin tracer, rat cerebral cortex receptor fraction); details: 3H-Ketanserin 1 nM, Wistar rat cerebral cortex receptor, 37° C. 30 min; read-out: IC50 (50% inhibition of specific binding of the tracer to the receptor)
T2 construct: the resultant nucleus-microsome-containing fraction (=receptor) was stored at -80° C; from tissue; host or cells: Wistar rat (male) cerebral cortex, nucleus-microsome-containing fraction
Description: (1) Receptor-binding Test
(a) Preparation of Receptor
Wistar strain male rats (300-500 g) were killed by decapitation. Cerebral cortex was removed, homogenized in 50 mM Tris-HCl buffer, pH 7.4, and centrifuged at 50,000×g for 20 min at 4° C. After washing precipitates with the same buffer, the resultant nucleus-microsome-containing fraction (=receptor) was stored at -80° C. until use.
The receptor obtained above (0.5 ml, equivalent to 5 mg of tissue) was incubated at 37° C. for 30 min in 0.4 ml of the above-mentioned buffer containing 0.1 ml of ^3 H-Ketanserin tracer (77 Ci/mmol; a final concentration of 1 nM) in the final volume of 1.0 ml. The reaction mixture was filtered under vacuum through a GF/B glass filter (Whatman). After washing the filter with the buffer, radio activity bound to filter was measured by a liquid scintilation spectrophotometer (Aloka, LSC-900) to obtain the total binding activity of the tracer.
Non-specific binding activity of the tracer, i.e., the binding activity of the tracer to materials other than the receptor, was evaluated using the same assay system except for that serotonin was added to the reaction mixture to the final concentration of 1 mM in order to block the binding of the tracer to the receptor. The specific binding activity of the tracer to the receptor was determined by subtracting the non-specific binding activity from the total binding activity.
(c) IC50 (concentration of a test compound requisite for producing a 50% inhibition)
Concentration (ng/ml) of compounds of the invention (serotonin antagonist) which produces a 50% inhibition of specific binding of the tracer to the receptor was determined as follows.
The assay system and procedure as described in (b) were employed except for that amitriphtyline hydrochloride as a control or a compound of the invention was added to the assay system with various concentrations of from 10^-1 to 10^-5 ng/ml. The specific binding activity was determined at each concentration, and a dose-response curve was prepared. A concentration of the compound in ng/ml required for producing 50% inhibition of specific binding of the tracer to the receptor (IC50) was determined on the basis of the dose-response curve.

T1 sequence (P14842 whole entry): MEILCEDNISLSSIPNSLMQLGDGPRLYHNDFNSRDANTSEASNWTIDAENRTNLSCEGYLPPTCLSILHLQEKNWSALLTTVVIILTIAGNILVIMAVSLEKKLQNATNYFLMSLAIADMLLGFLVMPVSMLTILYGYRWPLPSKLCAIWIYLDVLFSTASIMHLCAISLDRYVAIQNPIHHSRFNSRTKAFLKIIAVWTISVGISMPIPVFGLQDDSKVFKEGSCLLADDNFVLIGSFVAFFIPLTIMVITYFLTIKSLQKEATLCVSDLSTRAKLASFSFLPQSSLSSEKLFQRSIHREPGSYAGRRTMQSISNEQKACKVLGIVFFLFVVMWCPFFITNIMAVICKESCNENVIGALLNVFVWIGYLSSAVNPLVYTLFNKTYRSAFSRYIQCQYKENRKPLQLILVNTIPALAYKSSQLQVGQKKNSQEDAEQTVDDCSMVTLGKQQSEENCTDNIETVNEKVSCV
T2 sequence (P14842 whole entry): as above

Compound	Ki [1] [nM]	IC50 [2] [nM]
O=C(O)C1CCN(CCCCOc2ccccc2CCc2ccccc2)CC1 [compound 9]	198	
CN(C)CCCOc1ccccc1CCc1ccc(N(C)C)cc1 [compound 13]	23.3	
CN(C)CC(COc1ccccc1CCc1cccc(F)c1)OC(=O)CCC(=O)O (stereo not drawn) [compound 17]	41.3	
COc1cccc(CCc2ccccc2OCC(O)CN(C)C)c1 (stereo not drawn) [compound 15]	1.16	
CN(C)CCCOc1ccccc1CCc1ccccc1 [Compound No. 2]	4.55	33.8
COc1cccc(CCc2ccccc2OCC(CN(C)C)OC(=O)CCC(=O)O)c1 (stereo not drawn) [compound 14]	17.8	
CN(C)CCCCOc1ccccc1CCc1cccc(Cl)c1 [compound 19]	13.5	
COc1cccc(CCc2ccccc2OCCCCN(C)C)c1 [compound 12]	13.1	
c1ccc(CCc2ccccc2OCCCCN2CCCCC2)cc1 [compound 8]	67.6	
CN(C)CCCCOc1ccc(CCc2ccccc2)cc1 [compound 11]	416	
CN(C)CCCCCOc1ccccc1CCc1ccccc1 [compound 4]	37.6	377
CN(C)CCCCOc1cccc(CCc2ccccc2)c1 [compound 10]	517	
NCCCCOc1ccccc1CCc1ccccc1 [compound 7]	280	
CN(C)CC(O)COc1ccccc1CCc1ccccc1 (stereo not drawn) [compound 18]	13.9	
CN(C)CCCCOc1ccccc1CCc1ccccc1 [compound 3]	9.78	115
CNCCCCOc1ccccc1CCc1ccccc1 [compound 6]	70.6	156
CN(C)CCOc1ccccc1CCc1ccccc1 [Compound No. 1]	6.33	96.2
COc1cccc(CCc2ccccc2)c1OCCCCN(C)C [compound 21]	85.7	
COc1cccc(CCc2ccccc2OCC(CN(C)C)OCCC(=O)O)c1 (stereo not drawn) [compound 16]	1.05	
CN(C)CCCCOc1ccc(Cl)cc1CCc1ccccc1 [compound 20]	25.7	
CN(C)CCCCCCOc1ccccc1CCc1ccccc1 [compound 5]	74.9	152
